Data on two compounds can be found in patent publication US20250302721A1, “ANTI-AGING EYE CREAM” (L'OREAL, priority 2024, published 2025).

Assay [1] deals with Full-thickness reconstructed skin (T-Skin, Episkin). Nature of the assay: sGAG release in full-thickness reconstructed skin (sulfated glycosaminoglycan assay kit). The assay is classed as cell-based. The conditions noted are these: PX 0.02% and 0.06% in medium, Day 11 through Day 15, medium supernatant, n=3, FIG. 7. The protocol:
Full-thickness reconstructed skin (T-Skin, Episkin) was treated systemically with hydroxypropyl tetrahydropyrantriol (PX, 0.02% and 0.06%) based on the T-skin evaluation test. Tissues are received on medium at day 11 and stored at 37C (95% humidity and 5% CO2) until the end of treatments at […]. The tissue receive medium and medium+hydroxypropyl tetrahydropyrantriol starting from Day 11 through Day 15 (n=3). At Day 15, the medium supernatant was collected to be measured with the sulfated glycosaminoglycan assay kit (ab289846, Abcam). For analysis, sGAG release of the supernatant was quantified based on vendor protocol.

For assay [2], the system named is Normal adult human epidermal keratinocytes (NHEK-Ad). Nature of the assay: keratinocyte proliferation (Ki67 vs DAPI staining). The format is cell-based. The conditions noted are these: 48 hours, FIG. 9 and FIG. 10. On the procedure:
Normal adult human epidermal keratinocytes (NHEK-Ad, Cat #00192627, Lonza, Switzerland) were maintained in basal growth medium (KGM Gold keratinocyte Growth Medium Bulletkit, Cat #00192060) until the initiation of the proliferation experiment. The keratinocytes were seeded at a concentration of 1×10^3/24 well and allowed to equilibrate overnight (n=3/group). The cell culture medium was switched with fresh growth containing different concentrations of hydroxypropyl tetrahydropyrantriol (0.005%, 0.017%, and 0.05%), NAM (0.0012%, 0.004%, and 0.012%) alone and combination of hydroxypropyl tetrahydropyrantriol+niacinamide (PX/NAM). The cells were incubated for 48 hours and the keratinocytes were stained against KI67 primary antibody (Anti-Ki67 antibody, Cat #ab15580, Abcam) and goat anti-rabbit IgG Alexa Fluor®488 secondary antibody (Cat #150077, Abcam). The Ki67 and DAPI fluorescent signals were captured using a fluorescent microscope (DMi8, Leica). The Ki67 expression was quantified against total cell nucleus staining (DAPI staining solution, ab228549, Abcam) in order to calculate the number of proliferating cells vs. total number of cells.

`CC(O)C[C@@H]1OC[C@@H](O)[C@H](O)[C@H]1O` (stereo partly drawn) [hydroxypropyl tetrahydropyrantriol, C-beta-D-xylopyranoside-2-hydroxypropane]: in assay [1], the sGAG release entry is listed as “increase sGAG release”.
For the compound `NC(=O)c1cccnc1` [niacinamide], the “skin cell proliferation (Ki67 vs total nuclei)” value in assay [2] (0.004% niacinamide) and in assay [2] (0.012% niacinamide) was “significantly increase proliferation” throughout.
